In data set [1] the test system is conditioned avoidance response in rats. The data set can be described thus: animal or person. The data set is classed as in vivo, rat. Conditions: rat; for ED50: po, intragastric, 1 hour after administration, read-out: Rat CAR ED50; for Therapeutic index: LD50 versus CAR ED50; for performance in the rat CAR model (in words): compared with risperidone. The protocol:
[…] of SD rats, male.
Firstly, training the rats with shuttle box:
(1) The rats were allowed for adaption for five minutes;
(2) Conditioned stimulus (CS, light and noise) were started and lasted for 20 s, and at the tenth second, unconditioned stimulus (US, 1.5 mA electric shock) was performed and lasted for 10 s;
(3) Training was conducted 30 times per day for 9 days. The interval between two trainings was set randomly ranged from 20 to 30 s;
(4) Observation indicators:
The animal ran to another compartment during the conditioning stimulus was recorded as “avoidance”;
Animals ran to another compartment during the electric shock was recorded as “escape”;
Grouping of the qualified rats: the qualified rats were divided into negative control group, positive drug groups of each dosage, and compound groups of each dosage according to the principle of randomization, 8 in each group.
Administration Method: Corresponding solvent was administered intragastrically to the negative control group; corresponding dosages of positive drugs were administered intragastrically to the positive drug groups of each dosage; and corresponding dosages of compounds were administered intragastrically to the compound groups of each dosage.
CAR Assay: A CAR assay was performed 1 hour after intragastric administration. The method was the same as the CAR training. The observation indicators were the number of avoidances, the number of escapes, and the number of escape failures.
Statistical Data Processing: Assay data are presented as mean±standard deviation (Mean±SD), the comparison was performed by a combination of one-way ANOVA with post-hoc LSD. The ED50 was calculated using the probit method.

The target of another data set is Histamine H1 receptor (Cavia porcellus (Guinea pig), UniProt P31389). Description: Histamine H1 receptor binding assay (3H-pyrilamine). The following applies: guinea pig cerebellum membrane, 3H-pyrilamine. As to the method:
Preparation of Histamine H1 Receptor Membrane
Guinea pigs were decapitated. […] Vortex mixer was used for blending. Centrifugation was conducted at 48000 g, 4° C. for 10 min. The supernatant was discarded to give pellets, and buffer was added again for washing. Centrifugation was conducted and repeated 3 times.
(§1) Materials for the Receptor Binding Assay
(2) 100 μL of membrane preparation was added into each reaction tube.

The subject of the next data set is catalepsy in mice. Description: Catalepsy assay. The following applies: for Catalepsy/Apomorphine induced clambering / Catalepsy/MK-801 induced high activity: mice, ratio of ED50 values; for EPS in effective dosage (in words): mouse, in vivo. As to the method: (§2) The durations of the mice to maintain the posture with the two forepaws on the bars were recorded, and 30 s of spasticity without moving was considered as the positive response. In the case the forepaws of the mice were not put down persistently, the observation was terminated at 60 s. The numbers of animals with positive response in each of the compound dosage groups were counted.

The nature of another data set: Catalepsy assay. The following applies: both, Kunming, mouse, in vivo, po. The protocol:
as §2

Another data set concerns the target D2 (Rattus norvegicus (Rat), UniProt P61169). The data set can be described thus: D2 receptor binding assay (3H-Spiperone).
The target of the next data set is 5-HT1A (Rattus norvegicus (Rat), UniProt P19327). Description: 5-HT1A receptor binding assay (3H-8-OH-DPAT). The following applies: rat cortex membrane, 3H-8-OH-DPAT. As to the method: Rats were decapitated. […] Incubation at 37° C. was conducted for 10 min. […] Centrifugation was conducted and repeated 3 times.
as §1

The next data set has as its target 5-HT2A (Rattus norvegicus (Rat), UniProt P14842). The data set can be described thus: 5-HT2A receptor binding assay ([3H]-Ketanserin).
A short description of data set [2]: Acute toxicity study (mice). Type of data set: in vivo. The following applies: both sexes, KM, mouse, in vivo, po, intragastric. As to the method: (§3) Example 41: Acute Toxicity Study
(§4) Limit test of sequential assay: KM rats or mice (half male and half female) were randomly divided into several groups (with 2-5 mice in each group), which were respectively the 2000 mg/kg groups for each compound, and the solvent group. 0.2 ml/10 g were administered intragastrically. The deaths of the animals in 3 days were observed. In the case 3 or more animals survived in 3 days without notable abnormity in their life states, the observation was continued until the assay was completed in 7 days. In the case 3 or more animals died in 3 days, the method of median lethal dose was used to determine the LD50.
Pre-assay for the method of the median lethal dose: KM mice (half male and half female) were randomly divided into several groups (with 4 mice in each group), which were respectively the 500 mg/kg, 200 mg/kg, 50 mg/kg groups for each compound, and the solvent group. 0.2 ml/10 g were administered intragastrically, and the deaths of the animals in 1-3 days were observed.
(§5) Results: The compound of the invention has relatively low acute toxicity.

Another data set concerns the target 5-HT7 receptor (Rattus norvegicus (Rat), UniProt P32305). Description: 5-HT7 receptor binding assay ([3H]-5-CT). Conditions: rat hypothalamus membrane, [3H]-5-CT. As to the method:
Adult SD rats were decapitated. […] Centrifugation was conducted (repeated 3 times).
as §1

A short description of data set [3]: Acute toxicity study (rats). The following applies: both sexes, KM, in vivo, po, 2000 mg/kg; rat, intragastric. The protocol:
as §3, §4, §5

In data set [4] the test system is MK-801 induced high activity in mice. Description: MK-801 induced high activity. Type of data set: in vivo. Conditions: for ED50: Mus musculus, po; for improvement of MK-801 induced high activity (in words): compared with risperidone. As to the method:
Ascorbic acid was provided by Sinopharm Chemical Reagent Co. Ltd.
Subsequently, the spontaneous activities of the mice of each group in 90 min were measured.

Data set [5] concerns Apomorphine induced clambering in mice. Description: Apomorphine induced clambering assay of mice. Type of data set: in vivo. The following applies: mice; for ED50: Mus musculus, po, read-out: Apomorphine induced clambering (ED50, po, mg/kg); for improvement of apomorphine induced clambering symptoms (in words): compared with risperidone. The protocol:
Healthy KM mice, male, with body weight of 18-22 g, were provided by Qinglongshan Animal Cultivation Center, Nanjing.
Apomorphine provided by Sigma Company was dissolved in 0.9% NaCl (containing 0.1% vitamin C) before use, and was freshly formulated before use.
Vitamin C, F20061113, was provided by Sinopharm Chemical Reagent Co. Ltd.
Instruments: self-made clambering cage, chronograph.
Procedures: apomorphine induced clambering assay of mice
After 5 min of adaptation, the behavior of the mice at 10-11, 20-21, and 30-31 min after the injection of apomorphine were observed and scored.

Setting [6] is: read-out: Ki (nM) D2, rat striatum membrane, 3H-Spiperone.
The mark [7] stands for this setting: read-out: Ki (nM) 5-HT2A, rat cortex membrane, [3H]-Ketanserin.

Each structure is given as a SMILES string. Like-named read-outs stand apart in the source and are kept apart here. A value given as a limit tells only on which side of the number the result lay.

5-HT2A, sequence (P14842 whole entry): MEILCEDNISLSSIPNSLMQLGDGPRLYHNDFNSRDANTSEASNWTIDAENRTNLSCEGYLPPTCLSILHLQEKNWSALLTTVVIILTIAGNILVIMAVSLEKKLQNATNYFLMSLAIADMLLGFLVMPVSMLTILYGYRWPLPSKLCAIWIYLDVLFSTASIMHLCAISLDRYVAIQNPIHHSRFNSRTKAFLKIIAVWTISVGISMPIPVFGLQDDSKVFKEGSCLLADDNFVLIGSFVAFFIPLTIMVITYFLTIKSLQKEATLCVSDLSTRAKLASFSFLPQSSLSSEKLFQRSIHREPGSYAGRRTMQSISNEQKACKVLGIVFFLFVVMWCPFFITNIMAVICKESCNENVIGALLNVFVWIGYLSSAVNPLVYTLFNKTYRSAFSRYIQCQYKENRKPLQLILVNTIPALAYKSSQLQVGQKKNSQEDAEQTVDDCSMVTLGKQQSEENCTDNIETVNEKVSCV
5-HT7 receptor, sequence (P32305 whole entry): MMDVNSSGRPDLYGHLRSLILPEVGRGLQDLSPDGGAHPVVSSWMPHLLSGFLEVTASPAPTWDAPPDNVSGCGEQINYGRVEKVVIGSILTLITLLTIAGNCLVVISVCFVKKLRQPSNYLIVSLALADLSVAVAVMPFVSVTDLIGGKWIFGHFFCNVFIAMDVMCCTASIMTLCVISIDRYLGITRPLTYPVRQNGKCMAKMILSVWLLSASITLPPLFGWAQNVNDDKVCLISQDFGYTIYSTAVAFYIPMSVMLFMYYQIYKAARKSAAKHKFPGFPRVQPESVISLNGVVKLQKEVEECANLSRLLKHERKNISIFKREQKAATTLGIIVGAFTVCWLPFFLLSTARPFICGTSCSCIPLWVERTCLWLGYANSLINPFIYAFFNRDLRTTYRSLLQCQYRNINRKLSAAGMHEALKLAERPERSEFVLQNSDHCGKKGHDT
D2, sequence (P61169 whole entry): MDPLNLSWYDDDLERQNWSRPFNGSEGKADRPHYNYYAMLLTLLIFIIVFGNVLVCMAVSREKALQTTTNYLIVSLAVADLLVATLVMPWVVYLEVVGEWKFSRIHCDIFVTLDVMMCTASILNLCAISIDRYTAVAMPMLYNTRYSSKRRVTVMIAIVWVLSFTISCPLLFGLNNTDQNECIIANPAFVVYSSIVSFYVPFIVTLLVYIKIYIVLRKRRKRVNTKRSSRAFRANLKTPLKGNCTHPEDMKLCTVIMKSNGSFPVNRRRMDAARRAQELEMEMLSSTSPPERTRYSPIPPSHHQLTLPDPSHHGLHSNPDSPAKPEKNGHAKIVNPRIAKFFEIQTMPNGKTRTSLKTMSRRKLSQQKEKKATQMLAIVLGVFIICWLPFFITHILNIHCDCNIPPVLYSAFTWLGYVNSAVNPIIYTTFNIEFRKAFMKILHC
5-HT1A, sequence (P19327 whole entry): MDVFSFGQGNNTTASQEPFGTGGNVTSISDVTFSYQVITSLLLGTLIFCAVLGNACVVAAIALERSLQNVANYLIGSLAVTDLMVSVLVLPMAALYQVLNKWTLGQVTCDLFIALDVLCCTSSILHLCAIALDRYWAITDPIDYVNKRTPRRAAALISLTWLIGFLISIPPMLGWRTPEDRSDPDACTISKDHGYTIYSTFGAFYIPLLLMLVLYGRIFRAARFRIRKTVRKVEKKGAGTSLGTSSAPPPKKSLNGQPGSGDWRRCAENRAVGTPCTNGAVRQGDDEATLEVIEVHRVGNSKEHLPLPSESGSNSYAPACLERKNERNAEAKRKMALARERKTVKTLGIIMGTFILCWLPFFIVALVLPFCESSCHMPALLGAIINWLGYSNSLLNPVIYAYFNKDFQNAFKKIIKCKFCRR
Histamine H1 receptor, sequence (P31389 whole entry): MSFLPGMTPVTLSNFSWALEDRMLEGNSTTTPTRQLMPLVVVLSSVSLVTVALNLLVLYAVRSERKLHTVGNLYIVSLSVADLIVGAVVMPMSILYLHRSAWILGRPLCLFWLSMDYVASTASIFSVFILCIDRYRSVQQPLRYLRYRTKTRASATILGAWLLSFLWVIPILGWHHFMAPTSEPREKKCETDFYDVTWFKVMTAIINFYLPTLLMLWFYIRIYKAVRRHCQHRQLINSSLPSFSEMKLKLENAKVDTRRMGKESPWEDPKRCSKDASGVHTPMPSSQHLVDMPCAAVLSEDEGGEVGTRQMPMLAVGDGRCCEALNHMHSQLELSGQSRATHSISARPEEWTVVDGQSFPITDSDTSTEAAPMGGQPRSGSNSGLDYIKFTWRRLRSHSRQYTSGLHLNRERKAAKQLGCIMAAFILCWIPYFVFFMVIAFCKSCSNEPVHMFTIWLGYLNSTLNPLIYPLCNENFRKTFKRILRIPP
Experimental for 5-HT2A: Rats were decapitated. Cortex of brain was rapidly taken on ice, and 3 ml of buffer (0.05 M Tris-HCl buffer: 6.05 g of Tris was dissolved in 1000 ml of double-distilled water, and concentrated HCl was used to adjust to pH 7.5) was added, homogenization was conducted, and then 5 ml of buffer was added. Incubation was conducted at 37° C. for 10 min, the weight of the tubes were adjusted using a balance after incubation. Centrifugation was conducted at 12000 rpm, 4° C. for 20 min, the supernatant was discarded, and 3 ml of buffer was added. Vortex mixer was used for blending, and then 5 ml of buffer was added. Centrifugation was conducted (repeated 3 times). After the centrifugation, the supernatant was discarded, and the pellets were stored at −80° C. for future use.
(1) The prepared membrane was applied with buffer, and homogenizer was used for evenly dispersing. 15 tubes were mixed into a 100 ml container, and appropriate amount of buffer was added to give 50 ml of membrane suspension, which was reserved for future use.
(§6) (2) 100 μL of membrane preparation and 100 μL of buffer were added into each reaction tube.
(3) 100 μL of buffer was added into the total binding tube (TB), 100 μL of Methysergide (final concentration 10^−5M) was added into the nonspecific binding tube (NB), 100 μL of the test compound (final concentration 10^−5M) was added into the specific binding tube (SB) of each test compound.
(5) Each of the reaction tubes was incubated at 37° C. for 15 min. After the reaction was completed, the bound ligands were rapidly filtered under reduced pressure, and sufficiently washed with ice-chilled assay buffer. The filter was taken out and put into a 3 ml scintillation vial, and 2 ml of toluene scintillation cocktail was added and blended.
(6) The scintillation vial were put into Liquid Scintillation Counter for counting. Inhibition rate(I%)=(Total binding tube cpm−compound cpm)/(Total binding tube cpm−nonspecific binding tube cpm)×100%
Experimental for D2: Rats were decapitated. Striatum of brain was rapidly taken on ice, 3 ml of buffer (0.05 M Tris-HCl buffer, containing NaCl 120 mM, KCl 5 mM, MgCl2 1 mM, CaCl2 1 mM) was added, homogenization was conducted, and then 5 ml of buffer was then added. The weight of the homogenized tubes were adjusted using a balance, and centrifugation was conducted. The supernatant was discarded, and 3 ml of buffer was added. Vortex mixer was used for blending, and then 5 ml of buffer was added. Centrifugation was conducted and repeated 3 times. The supernatant was discarded after centrifugation was completed, and the pellets were stored at −80° C. for future use.
Beckman LS-6500 Multi-function Liquid Scintillation Counter was used.
(1) The prepared membrane was applied with appropriate amount of buffer, and homogenizer was used for evenly dispersing. 15 tubes were mixed into a 100 ml container, and appropriate amount of buffer was added to give 50 ml of membrane suspension, which was reserved for future use.
as §6
(3) 100 μL of buffer was added into the total binding tube (TB), 100 μL of Butaclamol (final concentration 10^−5M) was added into the nonspecific binding tube (NB), 100 μL of the test compound (final concentration 10^−5M) was added into the specific binding tube (SB) of each test compound.
(5) Each of the reaction tubes was incubated at 37° C. for 20 min. After the reaction was completed, the bound ligands were rapidly filtered under reduced pressure, and sufficiently washed with ice-chilled assay buffer. The filter was taken out and put into a 3 ml scintillation vial, and 2 ml of toluene scintillation cocktail was added and blended.
(6) The scintillation vials were put into Liquid Scintillation Counter for counting. Inhibition rate(I%)=(Total binding tube cpm−compound cpm)/(Total binding tube cpm−nonspecific binding tube cpm)×100%
Each assay for the compounds was conducted in duplicate for two individual tests.

A word on the Ki: it is a dissociation constant, usually derived from enzyme kinetics or from competition with a known ligand. One may read the LD50 as the dose expected to kill half of the subjects tested. Regarding `CN1CCc2ccc(OCCCN3CCN(c4ncccn4)CC3)cc2C1=O` [Compound 24, 2-methyl-7-(3-(4-(pyrimidin-2-yl)piperazin-1-yl)propoxy)-3,4-dihydroisoquinolin-1(2H)-one], the ED50 is 1.02 mg/kg in data set [1], 47 mg/kg in “Catalepsy assay”, 0.18 mg/kg in data set [4] and 0.22 mg/kg in [5]. The Therapeutic index in data set [1] stood at 143. Besides, the inhibitory constant (Ki) is more than 2000 nM at Histamine H1 receptor; 11.9 nM at D2 (setting [6]); 8.8 nM on 5-HT1A; 7.5 nM on 5-HT2A (setting [7]); 9.9 nM at 5-HT7 receptor. Moreover, in the data set on catalepsy in mice, the Catalepsy/Apomorphine induced clambering was found to be 214. Besides, in the data set on catalepsy in mice, the “Catalepsy/MK-801 induced high activity” value came out at 261. The molecule also showed an LD50 in data set [2] of 190 mg/kg. Moreover, the LD50 at 3 days in data set [3] amounted to 146 mg/kg.
Regarding `COc1ccccc1N1CCN(CCCOc2ccc3c(c2)C(=O)N(C)CC3)CC1` [Compound 22, 7-(3-(4-(2-methoxyphenyl)piperazin-1-yl)propoxy)-2-methyl-3,4-dihydroisoquinolin-1(2H)-one], the ED50 in data set [1] turned out to be 0.49 mg/kg; in “Catalepsy assay”, 52 mg/kg; in [4], 0.12 mg/kg; in data set [5], 0.19 mg/kg. The Therapeutic index in data set [1] turned out to be 404. Besides, the “performance in the rat CAR model (in words)” value in data set [1] is on record as “markedly better than risperidone”. The Ki is more than 2000 nM at Histamine H1 receptor; 9.6 nM at D2 (setting [6]); 6.5 nM at 5-HT1A; 3.2 nM at 5-HT2A (setting [7]); 28.1 nM at 5-HT7 receptor. The Catalepsy/Apomorphine induced clambering in the data set on catalepsy in mice turned out to be 273. For the same molecule, the “Catalepsy/MK-801 induced high activity” value with catalepsy in mice came to 433. Further, in the data set with catalepsy in mice, the “EPS in effective dosage (in words)” value is reported as “do not cause EPS”. This molecule came in with an LD50 in data set [2] of 311 mg/kg. For the same molecule, the LD50 at 3 days in data set [3] was 198 mg/kg. The “improvement of MK-801 induced high activity (in words)” value in data set [4] is recorded as “significantly improve”. The “improvement of apomorphine induced clambering symptoms (in words)” value in data set [5] is given as “effectively improve”.
Consider `O=C(CCCN1CCC(O)(c2ccc(Cl)cc2)CC1)c1ccc(F)cc1` [haloperidol, reference compound], for which the Catalepsy/Apomorphine induced clambering with catalepsy in mice was determined as 4.89. In addition, the “Catalepsy/MK-801 induced high activity” value with catalepsy in mice was 4.40. Further, the results for the ED50 (in “Catalepsy assay”; in data set [4]; in [5]) were 0.44 mg/kg, 0.1 mg/kg and 0.08 mg/kg, respectively.
Taken in the same sequence, the figures for `CN1CCN(C2=Nc3cc(Cl)ccc3Nc3ccccc32)CC1` [clozapine, reference compound] were more than 5.58, more than 21.93, more than 50 mg/kg, 2.28 mg/kg and 17.9 mg/kg.
As to `O=C1CCc2ccc(OCCCCN3CCC(c4noc5cc(F)ccc45)CC3)cc2N1` [E, reference compound], the Ki was found to be 178 nM on Histamine H1 receptor; 5.6 nM on D2; 23.2 nM at 5-HT1A; 12.7 nM on 5-HT2A; 35.6 nM at 5-HT7 receptor.
In the case of `Cn1cnc2ccc(OCCCCN3CCN(c4cccc(C(F)(F)F)c4)CC3)cc2c1=O` [Compound 28, 3-methyl-6-(4-(4-(3-(trifluoromethyl)phenyl)piperazin-1-yl)butoxy)quinazolin-4(3H)-one], the Ki at Histamine H1 receptor is more than 2000 nM; at D2 (setting [6]), 24.8 nM; on 5-HT1A, 12.2 nM; at 5-HT2A (setting [7]) it was 5.8 nM; on 5-HT7 receptor, 7.4 nM.
As to `Cc1nc2n(c(=O)c1CCN1CCC(c3noc4cc(F)ccc34)CC1)CCCC2` [risperidone, reference compound], the 50% lethal dose (LD50) at 3 days in [3] turned out to be 113 mg/kg.
Turning to `CN1CCc2ccc(OCCCN3CCN(c4nsc5ccccc45)CC3)cc2C1=O` [Compound 14, 7-(3-(4-(benzo[d]isothiazol-3-yl)piperazin-1-yl)propoxy)-2-methyl-3,4-dihydroisoquinolin-1(2H)-one], the ED50 in [1] came out at 0.65 mg/kg; in “Catalepsy assay”, 32 mg/kg; in data set [4] it was 0.07 mg/kg; in data set [5] it was 0.06 mg/kg. Besides, in [1], the Therapeutic index is reported as 238. In addition, the “performance in the rat CAR model (in words)” value in data set [1] is recorded as “markedly better than risperidone”. Moreover, the Ki at Histamine H1 receptor was 1360 nM; at D2 (setting [6]), 6.9 nM; on 5-HT1A, 8.8 nM; at 5-HT2A (setting [7]) it was 7.2 nM; at 5-HT7 receptor, 16.8 nM. For the same molecule, the Catalepsy/Apomorphine induced clambering with catalepsy in mice was 533. Besides, the “Catalepsy/MK-801 induced high activity” value in the data set on catalepsy in mice was 457. Moreover, the “EPS in effective dosage (in words)” value in the data set on catalepsy in mice is listed as “do not cause EPS”. Further, in data set [2], the LD50 turned out to be 202 mg/kg. Further, the LD50 at 3 days in data set [3] was 155 mg/kg. For the same molecule, the “improvement of MK-801 induced high activity (in words)” value in data set [4] is reported as “significantly improve”. Moreover, the “improvement of apomorphine induced clambering symptoms (in words)” value in data set [5] is listed as “effectively improve”.
With `CN1COc2ccc(OCCCN3CCC(c4noc5cc(F)ccc45)CC3)cc2C1=O` [Compound 11, 6-(3-(4-(6-fluorobenzo[d]isoxazol-3-yl)piperidin-1-yl)propoxy)-3-methyl-2H-benzo[e][1,3]oxazin-4(3H)-one], the Ki at Histamine H1 receptor is more than 2000 nM; at D2 (setting [6]), 13.9 nM; on 5-HT1A, 24.6 nM; at 5-HT2A (setting [7]), 3.6 nM; on 5-HT7 receptor, 11.2 nM.
Taken in the same sequence, the figures for `O=C1NCCc2ccc(OCCCN3CCN(c4cccc(Cl)c4Cl)CC3)cc21` [A, reference compound] were 89.6 nM, 21.2 nM, 14.3 nM, 29.2 nM and 254 nM.
For `CN1CCc2ccc(OCCCN3CCC(C(=O)c4ccc(F)cc4)CC3)cc2C1=O` [Compound 25, 7-(3-(4-(4-fluorobenzoyl)piperidin-1-yl)propoxy)-2-methyl-3,4-dihydroisoquinolin-1(2H)-one] the same measures were more than 2000 nM, 32.8 nM, 17.6 nM, 21.7 nM and 10.8 nM.
Consider `CN1CCc2ccc(OCCCN3CCN(c4ccccc4F)CC3)cc2C1=O` [Compound 20, 7-(3-(4-(2-fluorophenyl)piperazin-1-yl)propoxy)-2-methyl-3,4-dihydroisoquinolin-1(2H)-one], for which the Ki on Histamine H1 receptor is more than 2000 nM; at D2 (setting [6]) it was 54.8 nM; at 5-HT1A, 24.5 nM; on 5-HT2A (setting [7]) it was 32.1 nM; on 5-HT7 receptor it was 29.9 nM.
